In patent US6232318A, “Pyrimidinedione derivatives useful as alpha 1A adrenoceptor antagonists” (Merck & Co., Ltd., priority 1999, dated 2001):

How the values were obtained:
[1] = test system: human alpha 1d and alpha 1b adrenergic receptors; assay: Selective binding assays: alpha 1d and alpha 1b membranes ([125I]-HEAT competition), compared with alpha 1a; conditions: alpha 1a vs alpha 1b and alpha 1d, ratio
Procedure: Membranes prepared from stably transfected human alpha 1d and alpha 1b cell lines (ATCC CRL 11138 and CRL 11139, respectively) were used to identify compounds that selectively bind to the human alpha 1a adrenergic receptor. These competition binding reactions (total volume=200 μl) contained 50 mM Tris-HCl pH. 7.4, 5 mM EDTA, 150 mM NaCl, 100 pM [^125 I]-HEAT, membranes prepared from cell lines transfected with the respective alpha 1 subtype expression plasmid and increasing amounts of unlabeled ligand. Reactions were incubated at room temperature for one hour with shaking. Reactions were filtered onto Whatman GF/C glass fiber filters with a Inotec 96 well cell harvester. Filters were washed three times with ice cold buffer and bound radioactivity was determined (Ki).

[2] = molecular target: T1, human alpha 1a adrenergic receptor (Homo sapiens, UniProt P35348); assay: Screening assay: alpha 1a adrenergic receptor binding ([125I]-HEAT competition, membranes of stably transfected cell line)
T1 sequence (P35348 1-466): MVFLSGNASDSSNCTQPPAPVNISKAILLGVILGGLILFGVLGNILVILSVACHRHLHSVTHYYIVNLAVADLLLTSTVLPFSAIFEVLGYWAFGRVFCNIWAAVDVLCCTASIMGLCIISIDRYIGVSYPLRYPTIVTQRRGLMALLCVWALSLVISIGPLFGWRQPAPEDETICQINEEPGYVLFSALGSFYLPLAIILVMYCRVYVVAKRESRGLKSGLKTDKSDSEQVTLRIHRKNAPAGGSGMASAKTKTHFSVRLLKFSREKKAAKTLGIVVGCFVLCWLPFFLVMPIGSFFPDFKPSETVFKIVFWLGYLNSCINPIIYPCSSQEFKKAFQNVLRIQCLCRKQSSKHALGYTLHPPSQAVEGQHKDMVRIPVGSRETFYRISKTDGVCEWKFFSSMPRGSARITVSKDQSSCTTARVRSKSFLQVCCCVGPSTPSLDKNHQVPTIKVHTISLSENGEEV
Procedure: Screening Assay: Alpha 1a Adrenergic Receptor Binding
Membranes prepared from the stably transfected human alpha 1a cell line (ATCC CRL 11140) were used to identify compounds that bind to the human alpha 1a adrenergic receptor. These competition binding reactions (total volume=200 μl) contained 50 mM Tris-HCl pH. 7.4, 5 mM EDTA, 150 mM NaCl, 100 pM [^125 I]-HEAT, membranes prepared from the alpha 1a cell line and increasing amounts of unlabeled ligand. Reactions were incubated at room temperature for one hour with shaking. Reactions were filtered onto Whatman GF/C glass fiber filters with a Inotec 96 well cell harvester. Filters were washed three times with ice cold buffer and bound radioactivity was determined (Ki).

Row | selectivity in binding to alpha 1a receptors versus binding to alpha 1b and alpha 1d receptors [1] [fold] | Ki ([2]; room temperature, 1 h, pH 7.4) [mM] | Ki ([2]; value in mM) [mM] | Compound
1 | ≤ 10 |  |  | Cc1c[nH]c(=O)n(CCCN[C@H]2CC[C@](C#N)(c3ccccc3)CC2)c1=O [Example 20, cis4-[3-(5-Methyl-2,6-dioxo-3,6-dihydro-2H-pyrimidin-1-yl)propylamino]-1-phenylcyclohexanecarbonitrile]
2 | ≤ 10 | 0.000755 |  | Cc1c[nH]c(=O)n(CCCN[C@H]2CC[C@@](C#N)(c3ccccc3)CC2)c1=O [Example 21, trans-4-[3-(5-Methyl-2,6-dioxo-3,6-dihydro-2H-pyrimidin-1-yl)propylamino]-1-phenylcyclohexanecarbonitrile]
3 | ≤ 10 | 0.00079 |  | Cc1cn(CCCN[C@H]2CC[C@](C#N)(c3ccccc3C#N)CC2)c(=O)n(Cc2ccccc2)c1=O [Example 26, trans-2-{4-[3-(3-Benzyl-5-methyl-2,4-dioxo-3,4-dihydro-2H-pyrimidin-1-yl)propylamino]-1-cyanocyclohexyl}benzonitrile]

Continued, compound first:

Row | Compound | selectivity in binding to alpha 1a receptors versus binding to alpha 1b and alpha 1d receptors [1] [fold] | Ki ([2]; room temperature, 1 h, pH 7.4) [mM] | Ki ([2]; value in mM) [mM]
4 | Cc1cn(Cc2ccccc2)c(=O)n(CCCN2CCC(c3ccc(F)cc3)CC2)c1=O [Example 1, 1-Benzyl-3-{3-[4-(4-fluorophenyl)piperidin-1-yl]propyl}-5-methyl-1H-pyrimidine-2,4-dione] | ≤ 10 |  | 
5 | Cc1ccccc1C1(C#N)CCN(CCCn2c(=O)c(C)cn(Cc3ccccc3)c2=O)CC1 [Example 2, 1-[3-(3-Benzyl-5-methyl-2,6-dioxo-3,6-dihydro-2H-pyrimidin-1-yl)propyl]-4-ortho-tolylpiperidine-4-carbonitrile] | ≤ 10 |  | 
6 | Cc1cn(Cc2ccccc2)c(=O)n(CCCN[C@H]2CC[C@](C#N)(c3ccc(F)cc3F)CC2)c1=O [Example 4, cis-4-[3-(3-Benzyl-5-methyl-2,6-dioxo-3,6-dihydro-2H-pyrimidin-1-yl)propylamino]-1-(2,4-difluorophenyl)cyclohexanecarbonitrile] | ≤ 10 |  | 
7 | Cc1cn(Cc2ccccc2)c(=O)n(CCCN[C@H]2CC[C@@](C#N)(c3ccccc3)CC2)c1=O [Example 6, trans-4-[3-(3-Benzyl-5-methyl-2,6-dioxo-3,6-dihydro-2H-pyrimidin-1-yl)propylamino]-1-phenylcyclohexanecarbonitrile] | ≤ 10 | 0.0005 | 
8 | Cc1cn(Cc2ccccc2)c(=O)n(CCCN[C@H]2CC[C@@](C#N)(c3cc(F)cc(F)c3)CC2)c1=O [Example 9, cis-4-[3-(3-Benzyl-5-methyl-2,6-dioxo-3,6-dihydro-2H-pyrimidin-1-yl)propylamino]-1-(3,5-difluorophenyl)cyclohexanecarbonitrile] | ≤ 10 |  | 0.000115
9 | COc1ccccc1[C@H]1CC[C@H](NCCCn2c(=O)c(C)cn(Cc3ccccc3)c2=O)CC1 [Example 17, trans-1-Benzyl-3-{3-[4-(2-methoxyphenyl)cyclohexylamino]propyl}-5-methyl-1H-pyrimidine-2,4-dione] | ≤ 10 |  | 
